What was measured:
Format in all cases: cell-based, Pseudomonas aeruginosa
elastase = assay: Virulence factor production: elastase (proteolytic) activity of PAO-JP2 supernatant; conditions: PAO-JP2, 70 nm OdDHL plus 3 μg/ml and 5 μg/ml furanone 56
Procedure: Measurements of virulence factors. PAO-JP2 was grown in LB medium at 37° C. and shaking at 250 rpm to an OD600 nm of 1.0. The culture was divided into seven subcultures, which were added 0, 70, or 1000 nm OdDHL and 0. 3. or 5 μg/ml furanone 58. The cultures were grown for an additional 4 hours at 37° C. The proteolytic activity was measured as described by Ayora & G{overscore (o)}tz (1994). Azocasein (250 μl 2%, Sigma, St. Louis, Mo.) in 50 mM Tris/HCl and steril-filtered (Ø 0.2 μm) supernatant (150 μl) were incubated for 4 h at […] After precipitation of undigested substrate with trichloroacetic acid (1.2 ml 10%) for 15 minutes, followed by 10 minutes centrifugation at 1000 rpm, NaOH (1.4 ml 1 M) were added to the supernatant. The relative protease activity was measured as the absorbance at 440 nm (OD440 nm) of the supernatant divided by the optical density of the culture (OD600 nm ).

chitinase = assay: Virulence factor production: chitinase activity of PAO-JP2 supernatant; conditions: PAO-JP2, 70 nm OdDHL plus 3 μg/ml and 5 μg/ml furanone 56
Procedure: The chitinase activity assay was performed as described by the assay manufacturer (Loewe Biochemica, Sauerlach, Germany). Supernatant (560 μl) of cultures prepared as described for the elastase assay was mixed with carboxymethyl-chitin-remazol brilliant violet (200 μl) and sodium phosphate buffer (40 μl, 1 M, pH 7.5). The reaction mixture was incubated for 18 h at 40° C. in a waterbath. The reaction was stopped by addition of HCl (200 μl, 2 N) and kept for 15 min on ice. After centrifugation (10 min at 15000 rpm), the absorbance (OD550 nm) of the supernatant was measured. The relative chitinase activity was calculated as OD550 nm/OD600 nm normalized to 1 ml supernatant.

[1] = test system: protein synthesis (araC-PBAD-gfp(ASV)); assay: araC-PBAD-gfp(ASV) expression in biofilm, protein synthesis control; conditions: furanone 56 below 10 μg/ml, 0.2% L-arabinose; data not shown
Procedure: To determine if the furanone-mediated inhibition of green fluorescence is due to subtle non-specific effects on protein synthesis when the bacteria are growing in a biofilm, we examined expression of green fluorescence in cells harboring the araC-PBAD-gfp(ASV) cassette induced by suboptimal levels of L-arabinose is (0.2%). The cells became green fluorescent within 2 hours after induction.

[2] = test system: P. aeruginosa PAO1 biofilm; assay: Wild type P. aeruginosa PAO1 flowcell biofilm, lasB-gfp(ASV) reporter and Rfp tag, long term
Procedure: P. aeruginosa biofilms. Biofilms were grown at 30° C. in three-dimensional flow cells (Christensen et al., 1999) with individual channel dimensions of 0.3×4×40 mm supplied With ABt minimal medium supplemented with 2% LB. The flow system was assembled and prepared as described by Christensen et al. (1999). The substratum consisted of a microscope glass coverslip (Knittel 24×50 mm st1, Knittel Glaser, Braunschweig, Germany). Cultures for inoculation of the flow channels were prepared in the following way: P. aeruginosa strains were streaked on LB plates with the appropriate antibiotics and incubated for 24 h at 37° C. From each plate a single colony was used for inoculation of 10 ml ABt with 10% LB. The cultures were grown at, 30° C. for 18 h before they were diluted to an OD600 nm of 0.1 in sterile 0.9% NaCl and used for inoculation of the flow channels. Medium flow was kept at a constant rate of 3 mL/h, equivalent to a mean flow velocity of 0.7 mm/s, using a Watson-Marlow 205S peristaltic pump (Watson-Marlow, Falmouth, England). Biofilms were grown for 24 hours before being shifted to media containing AHL and furanone.
Scanning confocal laser microscopy (SCLM). Microscopic inspection and image acquisition were performed an a scanning confocal laser microscope (model TCS4D, Leica Lasertechnik GmbH, Heldelberg, Germany) equipped with a 63×/1.32-0.6 oil objective. The microscope was equipped with a motorized and programmable xy-stage, which was used for monitoring single colonies during the biofilm experiments. At the beginning of each online experiment, the microscope was programmed to track single randomly selected microcolonies; the sensitivity of photo multipliers and the laser intensity were adjusted and thereafter kept constant through out the duration of the experiments. Image scanning was carried out using the 488 nm and 568 nm lines of an Ar/Kr laser for detection of Gfp and Rfp, respectively. Visualization of captured images was performed using the IMARIS software package (Bitplane AG, Zúrich, Switzerland) running on a Silicon Graphics Indigo 2 workstation (Silicon Graphics, Mountain View, Calif. USA).
Furanone 66 represses lasB-expression in wild type P. aeruginosa biofilms. Wild type P. aeruginosa (PAO1) carrying a chromosomally integrated lasB-gfp(ASV) reporter system was grown in flowcells similar to the PAO-JP2-based reporter strain. We focused on studying the effect of furanone 56 in loan term biofilm experiments. In favor of this approach is the observation by Davies et al. (1998) that quorum sensing is involved in maturation of P. aeruginosa biofilms (up to 2 weeks old). In order to support such longterm cultivation, the biofilm medium was modified to contain 0.3 mM glucose instead of 2% LB as a carbon source. In addition, the recently available Red Fluorescent Protein (Rfp) derived from the indopacific sea anemone Discosome was employed to provide a red fluorescent tag on the biofilm bacteria. A mini-Tn5 transposon with the dsred gene under control of the strong constitutive lac promoter was inserted into the chromosome of PAO1 containing the lasB reporter system.
The dual-labeled PAO1 strain was inoculated A grown in flowcells in the absence and presence of 5 μg/ml furanone 56. The flowcells were inspected daily for ten days and scanning confocal photomicrographs were captured (FIG. 6 & 7). For clarity, the green and red fluorescent signals from the same area of the biofilm are shown separately. Because the cells constitutively express Rfp, the red color correlates with cell mass, whereas the green fluorescence indicates active transcription of the lasB-gfp(ASV) reporter gene in response to on-going bacterial communication.

O=C1C=C/C(=C/Br)O1 [furanone 56]
elastase activity (elastase): close to the uninduced level | chitinase activity (chitinase): close to the uninduced level | effect on Gfp-expression [1]: no effect on Gfp-expression | reporter system in biofilms ([2]; 5 μg/ml furanone 56): partially shut down | complete inhibition of the lasB-gfp(ASV) reporter in all biofilm bacteria ([2]; concentrations with no effect on growth (<10 μg/ml)): not achievable | bacterial signaling (green fluorescence) ([2]; day 1, 5 μg/ml furanone 56): greatly reduced | early biofilm formation ([2]; day 1, 5 μg/ml furanone 56): not or only slightly affected | green fluorescence of biofilm cells ([2]; day 7, 5 μg/ml furanone 56): far less green fluorescence | average biofilm thickness ([2]; day 7, 5 μg/ml furanone 56 (untreated 61±6 μm)): 23±4 μm | biofilm maturation ([2]; wild type biofilm grown in the presence of furanone): failed to mature

Source: patent publication US20040147595A1, “Biofilm degrading or sloughing compositions and methods” (priority 2001, published 2004)
